Key:
[1] = system: mouse heart (myocardium) redox status; experiment: Whole-body time-course PEDRI of TEMPONE nitroxide decay in the myocardial region of treated mice; type: in vivo; settings: 10 mg/kg daily I.V. for 4 days, TEMPONE probe
From the text: Proton electron double resonance imaging (PEDRI) is a recently developed low-field double magnetic resonance technique (Lurie et al. 2002). The technique uses the Overhauser effect to image the distribution of free radicals in biological samples. Of particular interest is that the technique can be extended to whole animals, allowing systemic redox state analysis as well as individual target organ analysis after therapeutic treatment. The in vivo application of the technique requires a balance between the electron paramagnetic resonance (EPR) irradiation frequency and the magnetic field applied: sufficiently low magnetic field must be utilized that allows penetration of the whole animal, while at the same time limiting nonresonant power deposition in the animal. […]
After the mice were placed in the PEDRI resonator, a bolus injection of 0.55-0.6 mL (normalized to the body weight of the individual animal) of 100 mM TEMPONE solution in PBS was given over 50-55 s through the tail vein. A series of time-course PEDRI measurements were then acquired every 10-15 s after the injection of the nitroxide probe solution, until the image intensity reached a minimum (i.e., no nitroxide signal could be detected). […]

[2] = system: superoxide anion signal from PMA-stimulated human polymorphonuclear leukocytes (PMNs); experiment: Direct superoxide anion scavenging by EPR spectroscopy (DEPMPO spin trap) in PMA-stimulated isolated human neutrophils; type: cell-based; settings: millimolar range, water
Description: Leukocyte Isolation and Preparation. Human polymorphonuclear leukocytes (PMNs) were isolated from freshly sampled venous blood of a single volunteer by Percoll density gradient centrifugation as described previously. Briefly, each 10 mL of whole blood was mixed with 0.8 mL of 0.1 M EDTA and 25 mL of saline. The diluted blood was then layered over 9 mL of Percoll at a specific density of 1.080 g/mL. After centrifugation at 400×g for 20 min at 20° C., the plasma, mononuclear cell, and Percoll layers were removed. Erythrocytes were subsequently lysed by addition of 18 mL of ice-cold water for 30 s, followed by 2 mL of 10×PIPES buffer (25 mM PIPES, 110 mM NaCl, and 5 mM KCl, titrated to pH 7.4 with NaOH). […] Afterward, PMNs were counted by light microscopy on a hemocytometer. […]
EPR Measurements. […] The microwave frequency was measured with a Model 575 microwave counter (EIP Microwave, Inc., San Jose, Calif.). […]
Instrument settings used in the spin-trapping experiments were as follows: modulation amplitude, 0.32 G; time constant, 0.16 s; scan time, 60 s; modulation frequency, 100 kHz; microwave power, 20 milliwatts; and microwave frequency, 9.76 GHz. The samples were placed in a quartz EPR flat cell, and spectra were recorded. The component signals in the spectra were identified and quantified as reported previously.

Which “rate of nitroxide reduction in the mouse heart compared to untreated control animals” value [1] does the source give for `CC1=C(/C=C/C(C)=C/C=C/C(C)=C/C=C/C=C(C)/C=C/C=C(C)/C=C/C2=C(C)C(=O)C(OC(=O)CCC(=O)O)CC2(C)C)C(C)(C)CC(OC(=O)CCC(=O)O)C1=O` (stereo not drawn) [Cardax™, disodium disuccinate derivative of synthetic astaxanthin] here?
Its value is “slower mean rate of nitroxide reduction”.

What about the “half-time (t) for the decay of the nitroxide signal intensity, myocardial region” value ([1]; mean±SEM, n=4, untreated 0.49±0.08) of the same compound?
The value was 0.99 ± 0.14 min.

How did the “aqueous superoxide scavenging profile (in words)” value [2] turn out when “3,3′-Diphosphoryloxy-β,ε-carotene sodium salt [compound 9]” was run?
The value was “slightly increased scavenging”.

— US20070238793A1, “Structural carotenoid analogs or derivatives for the modulation of systemic and/or target organ redox status” (priority 2005, published 2007)
